# “Also recorded” adds a separate entry of the source.
# Experiments:
# [1] = tested on: positive chronotropic effect induced by isoproterenol; assay: Heart rate of isoproterenol-treated mice; type: in vivo; settings: day 9 of treatment, vs isoproterenol-only mice; n=5; FIG. 5
# Protocol: (§1) All animal and mouse studies and/or models of cardiac hypertrophy were conducted in accordance with the standards set forth in the Guide for the Care and Use of Laboratory Animals (NIH Publication No. 85-23, revised 1996) and were approved by our Institutional Animal Care and Use Committee. Eight week-old C57BL/6 male mice (Jackson Laboratory) were given isoproterenol (Sigma Aldrich) at 40 mg·kg^−1d^−1 administered S.Q. via micro-osmotic pump insertion (ALZET 1007D). Briefly, animals were anesthetized with isoflurane (1.5%) and oxygen (98.5%) using an animal ventilator (Surgivet), an incision (1 cm) was made on the back between the shoulder blades, and micro-osmotic pumps containing isoproterenol dissolved in a saline solution (0.9% NaCl) were inserted into the infrascapular subcutaneous tissue.
# Doxycycline was given in drinking water at 6 mg mL^−1 (Sigma Aldrich) containing 5% sucrose unless specified otherwise. Control animals were given 5% sucrose water. […] Briefly, chow was crunched in powder and then mixed with carbamazepine. […]
# The heart rates of the mice were measured before induction of cardiac hypertrophy and after treatment on day 9, which was 1 day before they were sacrificed. […] Heart rates were measured before the experiment (t0) and 1 day before the sacrifice. […]
# [2] = cited from earlier work
# cardiac gene expression = assay: Real-time quantitative RT-PCR of heart RNA; type: in vivo, mice; parameters: key to Oncostatin receptor (Osmr), Real-time RT-PCR: Ind/Red (Induced/reduced) are used instead of fold-changes where no transcript was detected in one of the two samples being compared; Ind/Red (Induced/reduced) are used instead of fold-changes where no transcript was detected in one of the two samples being compared; settings: drug + isoproterenol vs isoproterenol only; for Oncostatin receptor (Osmr), Real-time RT-PCR: no transcript detected in one of the two samples
# Protocol: Real-time reverse transcriptase-polymerase chain reaction (RT-PCR). Real-time quantitative RT-PCR was performed in the iCycler iQ multi-Color real-time PCR detection system (Bio-Rad, Hercules, Calif.) using SYBR Green I dye (Qiagen, Valencia, Calif.) as described by the manufacturer. Briefly, 100 ng of RNA was placed into a 25 μl reaction volume containing 2.5 μl of each primer set (Quantitect Primer Assays, Qiagen), 12.5 μl SYBER Green PCR master mix, and 0.25 μl reverse transcriptase. A typical protocol included reverse transcription at 50° C. for 30 minutes and a denaturation step at 95° C. for 15 minutes followed by 35 cycles with 94° C. denaturation for 15 seconds, 55 C annealing for 30 seconds and 72 C extension for 30 seconds. Detection of the fluorescent product was performed at the end of the extension period at 60° C. for 20 seconds. To confirm amplification specificity, the PCR products were subjected to a melting curve analysis. […] Targets were normalized to reactions performed using Quantitect GAPDH primer assay (Qiagen), and fold change was determined using the comparative threshold method (20).
# adenylate cyclase = settings: by inhibiting adenylate cyclase; cited from earlier work
# [3] = tested on: isoproterenol induced cardiac hypertrophy; assay: Isoproterenol-induced cardiac hypertrophy in mice: heart size, heart weight ratios, histology; type: in vivo, C57BL/6 male mice
# Protocol: as §1
# Doxycycline was given in drinking water at 6 mg mL^−1 (Sigma Aldrich) containing 5% sucrose unless specified otherwise. Control animals were given 5% sucrose water. […] Water was added to the mix 0.8:1 (water weight to powder weight ratio) and the resulting paste diced and heated at 60° C. overnight.
# Histology. Animal hearts were excised, fixated with 10% phosphate-buffered formalin for 48 hours, and then embedded in paraffin. Cross-sectional slices in the minor axis were obtained with a microtome and the slices stained using Mayer's hematoxylin and eosin (H&E).
# Statistical analysis of the data includes values presented are expressed in mean ±S.E.M. All comparisons between groups were performed using a one way ANOVA followed by the Newman-Keuls test. Differences were considered to be statistically significant when P<0.05.
# P-values are obtained from a one way ANOVA. […] The control group (isoproterenol) received regular chow and 7% sucrose water. Each circle is the Heart to Body weights ratio obtained for a mouse, while the dashes are the average for each group.
# Histone Deacetylase = settings: cited from earlier work
# CREB = assay: Western blot of phosphorylation status of CREB; type: in vivo; settings: mice with isoproterenol-induced cardiac hypertrophy
# Protocol: Western Blots. The antibodies for Adra1b and GAPDH were purchased from Santa Cruz Biochemical Co. (Santa Cruz, Calif.). All other antibodies were purchased from Cell Signaling Technology, and Western blot analysis was performed as previously described (21). Briefly, equal amounts of total protein were loaded and separated on sodium dodecyl sulfate (SDS)—10% polyacrylamide gels and then transferred to nitrocellulose membranes. Membranes were blocked with 5% milk and washed in 1× Tween (0.1%)—Tris-buffered saline (TTBS) three times for 5 minutes each. Primary antibodies diluted 1:1000 in 5% milk or bovine serum albumin (BSA) (prepared in 1×TTBS) were allowed to incubate overnight at 4° C. After washing, horseradish peroxidase (HRP)-conjugated secondary antibody (Cell Signaling Technology) was diluted 1:2000 in 5% milk and applied to membranes. Subsequently, membranes were washed and a chemiluminescence substrate (Pierce, Rockford Ill.) was applied and allowed to incubate at room temperature for 5 minutes.
# [4] = doxycycline co-administered with carbamazepine; cited from earlier work
Compound,"Oncostatin receptor (Osmr), Real-time RT-PCR (cardiac gene expression)","Cyclin-dependent kinase inhibitor 1A (p21) (Cdkn1a), Real-time RT-PCR FC (cardiac gene expression; normalized to GAPDH) [FC]","Cytokine inducible SH2-containing protein 3 (Socs3), Real-time RT-PCR FC (cardiac gene expression; normalized to GAPDH) [FC]","GATA binding protein 4 (Gata4), Real-time RT-PCR FC (cardiac gene expression; normalized to GAPDH) [FC]","Matrix metalloproteinase 3 (Mmp3), Real-time RT-PCR FC (cardiac gene expression; normalized to GAPDH) [FC]","NADPH oxidase 4 (Nox4), Real-time RT-PCR FC (cardiac gene expression; normalized to GAPDH) [FC]","Phospholipase A2 group VII (platelet-activating factor acetylhydrolase, plasma) (Pla2g7), Real-time RT-PCR FC (cardiac gene expression; normalized to GAPDH) [FC]","S100 calcium binding protein A8 (calgranulin A) (S100a8), Real-time RT-PCR FC (cardiac gene expression; normalized to GAPDH) [FC]","SET and MYND domain containing 1 (Smyd1), Real-time RT-PCR FC (cardiac gene expression; normalized to GAPDH) [FC]","Serine protease inhibitor 2-2 (Spi2-2) (Serpin3n), Real-time RT-PCR FC (cardiac gene expression; normalized to GAPDH) [FC]","Transformation related protein 53 inducible nuclear protein 1 (Trp53inp1), Real-time RT-PCR FC (cardiac gene expression; normalized to GAPDH) [FC]",further results
NC(=O)N1c2ccccc2C=Cc2ccccc21 [carbamazepine],Red,−2.5,−4.3,2.0,−2.5,−3.5,−3.5,−2.1,3.3,−13.9,−3.0,"heart rate [1]: significantly lower heart rates; also recorded: attenuation of the positive chronotropic effect; blood pressure and heart rates ([2]; epileptic patients): lower blood pressure and heart rates; cardiovascular toxic effects ([2]; in vivo): no cardiovascular toxic effects; basal and forskolin-stimulated cAMP production (adenylate cyclase): abrogate both basal and forskolin-stimulated cAMP production; hypertrophic phenotype, heart cross sections (histology) ([3]; isoproterenol mice, H&E cross sections, FIG. 2): structure that is relatively well preserved; also recorded: reduced the hypertrophic phenotype; Heart to Body weights ratio ([3]; isoproterenol mice, 10 days, doxycycline 10 mg/mL in 7% sucrose water, carbamazepine […] in chow, FIG. 3, carbamazepine vs control P<0.01): significantly decreased; Heart to Tibia length ratio ([3]; isoproterenol mice, carbamazepine in chow or doxycycline in water vs no drug, FIG. 1, carbamazepine vs control P<0.0001): significantly lower; also recorded: significantly decreased; heart weight ([3]; single isoproterenol and carbamazepine treated mouse, FIG. 2C (untreated isoproterenol mouse 0.1800, wild type 0.1305)): 0.1415 grams; inhibition of Histone Deacetylase (HDAC) (Histone Deacetylase): inhibit Histone Deacetylase; levels of phosphorylated CREB (CREB): Almost no phosphorylated CREB was detected"
C[C@H]1c2cccc(O)c2C(=O)C2=C(O)[C@]3(O)C(=O)C(C(N)=O)=C(O)[C@@H](N(C)C)[C@@H]3[C@@H](O)[C@@H]21 [doxycycline],Red,−7.0,−4.0,4.9,−3.5,−4.0,−1.9,−181.0,1.6,−3.8,−1.9,"Cyclin G2 (Ccng2), Real-time RT-PCR FC (cardiac gene expression; normalized to GAPDH): −5.7 FC; DNA-damage-inducible transcript 4 (Ddit4), Real-time RT-PCR FC (cardiac gene expression; normalized to GAPDH): −5.7 FC; Gem GTPase (Gem), Real-time RT-PCR FC (cardiac gene expression; normalized to GAPDH): −1.8 FC; Lipocalin 2 (Lcn2), Real-time RT-PCR FC (cardiac gene expression; normalized to GAPDH): −9.9 FC; Metallothionein 1 (MT2), Real-time RT-PCR FC (cardiac gene expression; normalized to GAPDH): −14.9 FC; S100 calcium binding protein A9 (calgranulin B) (S100a9), Real-time RT-PCR FC (cardiac gene expression; normalized to GAPDH): −104.0 FC; Tubulin, alpha 4 (Tuba4), Real-time RT-PCR FC (cardiac gene expression; normalized to GAPDH): 36.8 FC; half-life [4]: shorter"

# — patent publication US20080305186A1, “Method and Composition for the Treatment of Cardiac Hypertrophy” (BOARD OF REGENTS, THE UNIVERSITY OF TEXAS SYSTEM, priority 2007, published 2008)
